In PubChem BioAssay (NCI):
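Values below derive from 48-hour exposures of cells grown in 96-well plates, with endpoints linearly interpolated between the two concentrations bracketing the appropriate inhibition level. GI50: concentration for 50% inhibition of growth. TGI is the concentration that stops growth completely.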

Legend:
Experiment in all cases: NCI-60 cell line screen, 48 h
TK-10 renal = system: TK-10 renal
SK-MEL-2 melanoma = system: SK-MEL-2 melanoma
HCT-15 colon = system: HCT-15 colon
HCC-2998 colon = system: HCC-2998 colon
DU-145 prostate = system: DU-145 prostate
MDA-MB-468 breast = system: MDA-MB-468 breast
HT29 colon = system: HT29 colon
NCI-H226 lung = system: NCI-H226 lung
U251 CNS = system: U251 CNS
IGROV1 ovarian = system: IGROV1 ovarian
SN12C renal = system: SN12C renal
ACHN renal = system: ACHN renal
OVCAR-5 ovarian = system: OVCAR-5 ovarian
UO-31 renal = system: UO-31 renal
COLO 205 colon = system: COLO 205 colon
OVCAR-8 ovarian = system: OVCAR-8 ovarian
PC-3 prostate = system: PC-3 prostate
SNB-19 CNS = system: SNB-19 CNS
NCI-H522 lung = system: NCI-H522 lung
OVCAR-3 ovarian = system: OVCAR-3 ovarian
UACC-257 melanoma = system: UACC-257 melanoma
MDA-MB-231 breast = system: MDA-MB-231 breast
BT-549 breast = system: BT-549 breast
SR leukemia = system: SR leukemia
MALME-3M melanoma = system: MALME-3M melanoma
SF-295 CNS = system: SF-295 CNS
A549 NSCLC = system: A549 NSCLC
UACC-62 melanoma = system: UACC-62 melanoma
SK-MEL-28 melanoma = system: SK-MEL-28 melanoma
SNB-75 CNS = system: SNB-75 CNS
K-562 leukemia = system: K-562 leukemia
CAKI-1 renal = system: CAKI-1 renal
NCI/ADR-RES ovarian = system: NCI/ADR-RES ovarian
RXF 393 renal = system: RXF 393 renal
NCI-H460 lung = system: NCI-H460 lung
HCT-116 colon = system: HCT-116 colon
CCRF-CEM leukemia = system: CCRF-CEM leukemia
786-0 renal = system: 786-0 renal
LOX IMVI melanoma = system: LOX IMVI melanoma
OVCAR-4 ovarian = system: OVCAR-4 ovarian
SW-620 colon = system: SW-620 colon
MOLT-4 leukemia = system: MOLT-4 leukemia
SK-OV-3 ovarian = system: SK-OV-3 ovarian
HL-60(TB) leukemia = system: HL-60(TB) leukemia
EKVX NSCLC = system: EKVX NSCLC
RPMI-8226 leukemia = system: RPMI-8226 leukemia
HS 578T breast = system: HS 578T breast
SK-MEL-5 melanoma = system: SK-MEL-5 melanoma
SF-539 CNS = system: SF-539 CNS
MDA-MB-435 = system: MDA-MB-435
NCI-H23 lung = system: NCI-H23 lung
T-47D breast = system: T-47D breast
KM12 colon = system: KM12 colon
MCF7 breast = system: MCF7 breast
HOP-62 NSCLC = system: HOP-62 NSCLC
SF-268 CNS = system: SF-268 CNS
M14 melanoma = system: M14 melanoma

With N#Cc1cc(-c2ccc3ncnc(N4CCc5cc(F)c(Cl)cc54)c3c2)cnc1N the GI50 (TK-10 renal) was 0.993 µM, the TGI (TK-10 renal) was over 100 µM and the GI50 (SK-MEL-2 melanoma) was 17.1 µM. For the same compound, the TGI (SK-MEL-2 melanoma) was over 100 µM, the GI50 (HCT-15 colon) was 1.68 µM and the TGI (HCT-15 colon) was over 100 µM. It also gave a GI50 (HCC-2998 colon) of 2.07 µM, a TGI (HCC-2998 colon) of over 100 µM and a GI50 (DU-145 prostate) of 1.49 µM. For the same compound, the TGI (DU-145 prostate) was over 100 µM, the GI50 (MDA-MB-468 breast) was 0.227 µM and the TGI (MDA-MB-468 breast) was 0.88 µM. For the same compound, the GI50 (HT29 colon) was 2.65 µM, the TGI (HT29 colon) was over 100 µM and the GI50 (NCI-H226 lung) was 1.38 µM. The TGI (NCI-H226 lung) was over 100 µM, the GI50 (U251 CNS) was 2.71 µM and the TGI (U251 CNS) was over 100 µM. For the same compound, the GI50 (IGROV1 ovarian) was 0.365 µM, the TGI (IGROV1 ovarian) was 3.01 µM and the GI50 (SN12C renal) was 1.05 µM. The TGI (SN12C renal) was 11.2 µM, the GI50 (ACHN renal) was 0.85 µM and the TGI (ACHN renal) was over 100 µM. It also gave a GI50 (OVCAR-5 ovarian) of 5.21 µM, a TGI (OVCAR-5 ovarian) of over 100 µM and a GI50 (UO-31 renal) of 0.278 µM. For the same compound, the TGI (UO-31 renal) was over 100 µM, the GI50 (COLO 205 colon) was 1.9 µM and the TGI (COLO 205 colon) was over 100 µM. For the same compound, the GI50 (OVCAR-8 ovarian) was 2.34 µM, the TGI (OVCAR-8 ovarian) was over 100 µM and the GI50 (PC-3 prostate) was 1.75 µM. The TGI (PC-3 prostate) was over 100 µM, the GI50 (SNB-19 CNS) was 3.41 µM and the TGI (SNB-19 CNS) was over 100 µM. For the same compound, the GI50 (NCI-H522 lung) was 3.34 µM, the TGI (NCI-H522 lung) was over 100 µM and the GI50 (OVCAR-3 ovarian) was 1.47 µM. For the same compound, the TGI (OVCAR-3 ovarian) was over 100 µM, the GI50 (UACC-257 melanoma) was 4.45 µM and the TGI (UACC-257 melanoma) was over 100 µM. For the same compound, the GI50 (MDA-MB-231 breast) was 2.45 µM, the TGI (MDA-MB-231 breast) was 9.48 µM and the GI50 (BT-549 breast) was 1.23 µM. The TGI (BT-549 breast) was 32.6 µM, the GI50 (SR leukemia) was 1.01 µM and the TGI (SR leukemia) was 10 µM. For the same compound, the GI50 (MALME-3M melanoma) was 2.93 µM, the TGI (MALME-3M melanoma) was 45.5 µM and the GI50 (SF-295 CNS) was 3.23 µM. For the same compound, the TGI (SF-295 CNS) was over 100 µM, the GI50 (A549 NSCLC) was 1.88 µM and the TGI (A549 NSCLC) was over 100 µM. It also gave a GI50 (UACC-62 melanoma) of 3.39 µM, a TGI (UACC-62 melanoma) of over 100 µM and a GI50 (SK-MEL-28 melanoma) of 2.81 µM. The TGI (SK-MEL-28 melanoma) was over 100 µM, the GI50 (SNB-75 CNS) was 0.838 µM and the TGI (SNB-75 CNS) was over 100 µM. For the same compound, the GI50 (K-562 leukemia) was 3.23 µM, the TGI (K-562 leukemia) was over 100 µM and the GI50 (CAKI-1 renal) was 0.786 µM. For the same compound, the TGI (CAKI-1 renal) was over 100 µM, the GI50 (NCI/ADR-RES ovarian) was 2.41 µM and the TGI (NCI/ADR-RES ovarian) was over 100 µM. For the same compound, the GI50 (RXF 393 renal) was 0.316 µM, the TGI (RXF 393 renal) was 2.94 µM and the GI50 (NCI-H460 lung) was 1.9 µM. The TGI (NCI-H460 lung) was 6.52 µM, the GI50 (HCT-116 colon) was 2.11 µM and the TGI (HCT-116 colon) was 10.4 µM. The GI50 (CCRF-CEM leukemia) was 0.575 µM, the TGI (CCRF-CEM leukemia) was over 100 µM and the GI50 (786-0 renal) was 0.435 µM. For the same compound, the TGI (786-0 renal) was 21.9 µM, the GI50 (LOX IMVI melanoma) was 1.6 µM and the TGI (LOX IMVI melanoma) was 16.9 µM. The GI50 (OVCAR-4 ovarian) was 3.7 µM, the TGI (OVCAR-4 ovarian) was over 100 µM and the GI50 (SW-620 colon) was 2.62 µM. It also gave a TGI (SW-620 colon) of over 100 µM, a GI50 (MOLT-4 leukemia) of 1.63 µM and a TGI (MOLT-4 leukemia) of 11.4 µM. The GI50 (SK-OV-3 ovarian) was 2.92 µM, the TGI (SK-OV-3 ovarian) was over 100 µM and the GI50 (HL-60(TB) leukemia) was 0.422 µM. For the same compound, the TGI (HL-60(TB) leukemia) was over 100 µM, the GI50 (EKVX NSCLC) was 0.94 µM and the TGI (EKVX NSCLC) was over 100 µM. For the same compound, the GI50 (RPMI-8226 leukemia) was 0.992 µM, the TGI (RPMI-8226 leukemia) was over 100 µM and the GI50 (HS 578T breast) was 0.633 µM. The TGI (HS 578T breast) was 7.71 µM, the GI50 (SK-MEL-5 melanoma) was 3.03 µM and the TGI (SK-MEL-5 melanoma) was over 100 µM. For the same compound, the GI50 (SF-539 CNS) was 1.87 µM, the TGI (SF-539 CNS) was over 100 µM and the GI50 (MDA-MB-435) was 4.15 µM. The TGI (MDA-MB-435) was 29.8 µM, the GI50 (NCI-H23 lung) was 3.34 µM and the TGI (NCI-H23 lung) was over 100 µM. It also gave a GI50 (T-47D breast) of 1.49 µM, a TGI (T-47D breast) of over 100 µM and a GI50 (KM12 colon) of 15.9 µM. The TGI (KM12 colon) was over 100 µM, the GI50 (MCF7 breast) was 0.532 µM and the TGI (MCF7 breast) was 4.05 µM. It also gave a GI50 (HOP-62 NSCLC) of 3.75 µM, a TGI (HOP-62 NSCLC) of over 100 µM and a GI50 (SF-268 CNS) of 2.31 µM. For the same compound, the TGI (SF-268 CNS) was over 100 µM, the GI50 (M14 melanoma) was 3.09 µM and the TGI (M14 melanoma) was over 100 µM.
